Data set [1] concerns the target wild type TEM-1 β-lactamase (Escherichia coli, UniProt P62593). Kind of data set: Spectrophotometric nitrocefin hydrolysis inhibition assay, TEM-1. The conditions noted are these: for IC50: inhibition values are IC50 unless noted. The data set is classed as biochemical. How it is done:
(§1) The inhibition of beta lactamase was determined spectrophotometrically. Beta lactamase activity was followed by measuring the change in absorbance upon hydrolysis of nitrocefin, [3-(2,4-dinitrostyryl)-(6R,7R)-7-(2-thienylacetamido)-ceph-3-em-4-carboxylic acid, E-isomer], (Calbiochem, San Diego, Calif., USA) at 486 nm. Inhibition constants (Ki) for the inhibitors are obtained at the desired temperature and solvent conditions by measuring the rate of substrate hydrolysis at increasing amounts of inhibitors. All inhibition assays were performed at 25° C. in 50 mM sodium phosphate, 5% DMSO, pH 7.0, keeping the enzyme concentration at 5 nM and the substrate concentration at 167 μM. Reaction was started by addition of substrate to the corresponding mixture of enzyme and inhibitor preincubated for 10 minutes.

A further data set is described as follows: Solubility. Type of data set: physicochemical.
Data set [2] in a line: Microsomal stability (T1/2). Type of data set: in vitro ADME. Particulars: microsomes.
The next data set deals with HSA (Homo sapiens, UniProt P02768). Kind of data set: HSA binding (Kd).
HSA, sequence (P02768 25-609): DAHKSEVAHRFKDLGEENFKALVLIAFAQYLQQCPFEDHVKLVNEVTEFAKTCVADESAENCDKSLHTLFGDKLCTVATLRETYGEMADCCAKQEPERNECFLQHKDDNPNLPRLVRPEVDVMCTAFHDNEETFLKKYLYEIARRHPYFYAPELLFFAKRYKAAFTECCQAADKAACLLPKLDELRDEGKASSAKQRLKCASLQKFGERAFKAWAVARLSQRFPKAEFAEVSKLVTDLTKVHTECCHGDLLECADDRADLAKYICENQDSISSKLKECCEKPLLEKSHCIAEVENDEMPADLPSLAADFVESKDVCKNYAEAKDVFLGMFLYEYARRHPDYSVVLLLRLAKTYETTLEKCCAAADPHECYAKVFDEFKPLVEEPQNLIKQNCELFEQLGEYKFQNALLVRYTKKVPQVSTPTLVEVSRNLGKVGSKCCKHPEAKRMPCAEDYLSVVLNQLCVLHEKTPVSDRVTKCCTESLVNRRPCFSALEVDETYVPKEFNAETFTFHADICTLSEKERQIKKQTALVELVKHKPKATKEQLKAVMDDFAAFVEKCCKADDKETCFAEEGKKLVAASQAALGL
Another data set concerns the target AmpC β-lactamase (Escherichia coli, UniProt P00811). Kind of data set: Spectrophotometric nitrocefin hydrolysis inhibition assay, AmpC.
In the next data set the target is IMP-1 beta-lactamase (Serratia marcescens, UniProt P52699). Kind of data set: Spectrophotometric nitrocefin hydrolysis inhibition assay, IMP-1.
IMP-1 beta-lactamase, sequence (P52699 19-246, looked up): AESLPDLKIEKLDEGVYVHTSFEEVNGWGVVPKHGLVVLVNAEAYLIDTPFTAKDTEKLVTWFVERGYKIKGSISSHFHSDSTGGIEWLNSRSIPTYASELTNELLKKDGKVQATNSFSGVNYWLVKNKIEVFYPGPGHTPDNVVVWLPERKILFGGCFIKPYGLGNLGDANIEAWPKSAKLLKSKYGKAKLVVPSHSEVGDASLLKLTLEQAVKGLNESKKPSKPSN
In another data set the test system is AmpC. The conditions noted are these: read-out: Inhibitory Potency (IC50) AmpC; cited from earlier work.
A further data set deals with TEM-1 (Escherichia coli, UniProt P62593). Kind of data set: TEM-1 binding enthalpy (ΔH).
TEM-1, sequence (P62593 24-286 limits assumed): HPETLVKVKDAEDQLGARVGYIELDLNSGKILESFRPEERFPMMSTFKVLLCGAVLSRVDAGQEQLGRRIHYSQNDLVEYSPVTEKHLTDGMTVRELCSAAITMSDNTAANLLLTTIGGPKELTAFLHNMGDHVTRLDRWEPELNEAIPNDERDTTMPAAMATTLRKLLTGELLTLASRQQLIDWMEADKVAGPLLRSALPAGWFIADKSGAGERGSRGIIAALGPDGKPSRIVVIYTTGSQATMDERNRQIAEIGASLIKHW
Data set [3] deals with TEM-1 β-lactamase, Drug Resistant Mutants and AmpC β-lactamase. Kind of data set: Average Ki over TEM-1, drug resistant mutants and AmpC. Type of data set: biochemical. The conditions noted are these: mean over TEM-1, TEM-12, TEM-17, TEM-30, TEM-40, AmpC. How it is done: as §1
For data set [4], the system named is Methicillin-resistant (MRSA) Staphylococcus aureus. Kind of data set: Oxacillin MIC in presence of compound, MRSA. Type of data set: cell-based.
Data set [5] concerns Vancomycin-resistant (VRSA) Staphylococcus aureus. Kind of data set: Oxacillin MIC in presence of compound, VRSA. The data set is classed as cell-based.
The mark [6] stands for this setting: Oxacillin MIC with compound at 4 μg/mL.

Values after ≈ are worked out from the molar mass of the structure shown. Values joined by “and” are separate entries in the source; they are usually repeats but may differ in a detail not shown here. Equal values may be shown once. Some results are limits rather than exact numbers.

wild type TEM-1 β-lactamase, sequence (P62593 24-286 limits assumed): as above
AmpC β-lactamase, sequence (P00811 20-377): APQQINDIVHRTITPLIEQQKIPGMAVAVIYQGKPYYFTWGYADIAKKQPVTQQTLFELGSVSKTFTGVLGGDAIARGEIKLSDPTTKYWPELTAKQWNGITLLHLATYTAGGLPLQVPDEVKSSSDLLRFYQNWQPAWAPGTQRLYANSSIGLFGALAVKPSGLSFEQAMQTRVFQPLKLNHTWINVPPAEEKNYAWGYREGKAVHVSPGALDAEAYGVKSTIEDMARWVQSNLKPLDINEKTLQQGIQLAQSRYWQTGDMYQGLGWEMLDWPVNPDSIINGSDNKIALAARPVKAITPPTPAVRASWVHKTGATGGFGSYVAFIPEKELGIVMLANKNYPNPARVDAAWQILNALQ

For the compound `O=S(=O)(/C=C/c1cccc(Cl)c1)Nc1cccc(OCc2cccc(F)c2)c1` [ef-rs-09-012], the IC50 (usually the concentration at which inhibition is half-maximal) in data set [1] is 523 ± 84 nM; on AmpC β-lactamase, 846 ± 100 nM; against IMP-1 beta-lactamase, 157 ± 12 nM. Further, in “Solubility”, the solubility (usually how much of the substance goes into solution per volume) came to 7 µM (≈ 2.93 µg/mL). Also, in data set [2], the half-life – broadly, how long it takes for the measured level to halve – worked out at 81 ± 14 min. For the same compound, the Kd (as a rule, the constant that tells how readily two partners part at equilibrium) on HSA is 49 nM and 52 nM.
Take `C[C@]1(Cn2ccnn2)[C@H](C(=O)O)N2C(=O)C[C@H]2S1(=O)=O` [Tazobactam]: the IC50 with AmpC was […].
In the case of `COc1ccc(NS(=O)(=O)/C=C/c2cccc(Cl)c2)cc1O` [ef-rs-09-014], the values for the IC50 (in data set [1]; on AmpC β-lactamase; against IMP-1 beta-lactamase) were 2470 ± 50 nM, 3750 ± 500 nM and 4690 ± 270 nM, respectively. The same compound yielded a solubility in the data set “Solubility” of 450 µM (≈ 153 µg/mL). In [2], this compound yielded a half-life of less than 5 min. On HSA, this compound had a Kd of 2510 ± 1780 nM.
Take `COc1ccc(NS(=O)(=O)/C=C/c2cccc([N+](=O)[O-])c2)cc1OCc1cccc(Cl)c1` [ef-rs-05-080]: the solubility in the data set “Solubility” is 3 µM (≈ 1.42 µg/mL). Moreover, the half-life in data set [2] stood at 37 ± 4 min. Besides, at HSA, the Kd is 4580 nM and 5350 nM. The IC50 against AmpC β-lactamase was found to be 563 ± 63 nM; at IMP-1 beta-lactamase, 1100 ± 40 nM.
`COc1ccc(NS(=O)(=O)/C=C/c2cccc(Cl)c2)cc1OCc1cccc(Cl)c1` [ef-rs-04-091] came in with a solubility in “Solubility” of 19 µM (≈ 8.82 µg/mL). Further, in data set [2], the half-life is 70 ± 8 min. For the same compound, the Kd on HSA was 4080 nM and 4260 nM. Moreover, the “TEM-1 ΔH” value on TEM-1 is “+1.75 kcal/mol”. The IC50 on AmpC β-lactamase stood at 671 ± 238 nM; at IMP-1 beta-lactamase, 347 ± 43 nM.
Consider `O=S(=O)(/C=C/c1cccc(Cl)c1)N(Cc1cccc(Cl)c1)c1cccc(OCc2cccc(Cl)c2)c1` [ef-rs-08-052, (E)-N-(3-chlorobenzyl)-N-(3-(3-chlorobenzyloxy)phenyl)-2-(3-chlorophenyl)ethenesulfonamide], for which the Ki (commonly the dissociation constant of the complex between target and ligand, obtained from inhibition or displacement) at AmpC β-lactamase was 67 nM; on IMP-1 beta-lactamase, 203 ± 51 nM.
In the case of `CC1(C)[C@H](C(=O)O)N2C(=O)C[C@H]2S1(=O)=O` [Sulbactam], in the data set with AmpC, the IC50 is no less than 3800 nM.
Take `O=S(=O)(/C=C/c1cccc(Br)c1)Nc1cccc(-c2nnn(Cc3cccc(Cl)c3)n2)c1`: the “mode of inhibition of TEM-1 beta-lactamase” value in data set [1] (double reciprocal plot, FIG. 3) was “competitive inhibition”. Also, the Ki in [3] was found to be 362 nM; on AmpC β-lactamase, 182 nM.
Take `COc1cccc(/C=C/S(=O)(=O)Nc2cccc(OCc3cccc(Cl)c3)c2)c1` [ef-rs-05-054]: the solubility in “Solubility” was found to be 6 µM (≈ 2.58 µg/mL). Also, in data set [2], the half-life was 59 ± 6 min. At HSA, the Kd was 97.5 nM and 202 nM. For the same compound, on TEM-1, the “TEM-1 ΔH” value was “+2.32 kcal/mol”. The IC50 against AmpC β-lactamase came out at 555 ± 36 nM; against IMP-1 beta-lactamase, 734 ± 106 nM.
As for `O=S(=O)(/C=C/c1cccc(Cl)c1)Nc1ccc(OCc2cccc(Cl)c2)cc1` [ef-rs-09-030], the IC50 in [1] worked out at 85 ± 21 nM; at AmpC β-lactamase, 553 ± 58 nM; on IMP-1 beta-lactamase, 63 ± 8 nM. Further, the concentration in solution in “Solubility” (solubility) was 6 µM (≈ 2.61 µg/mL). In addition, at HSA, binding was put at a Kd of 301 ± 65 nM.
For the compound `O=S(=O)(/C=C/c1cccc(Cl)c1)N(Cc1cccc(Cl)c1)c1cccc(Cl)c1` [ef-rs-03-075], the Ki was found to be 82 ± 12 nM in [1] (25° C., 50 mM sodium phosphate, 5% DMSO, pH 7.0, nitrocefin 167 μM, read-out: Ki TEM-1 (WT)) and 496 ± 57 nM at IMP-1 beta-lactamase.
As for `O=C(O)[C@H]1/C(=C/CO)O[C@@H]2CC(=O)N21` [Clavulanic Acid], the IC50 in the data set on AmpC is no less than 59000 nM.
Take `COc1cc(NS(=O)(=O)/C=C/c2cccc(Cl)c2)ccc1OCc1cccc(Cl)c1` [ef-rs-09-029]: the values for the IC50 (in data set [1]; against AmpC β-lactamase; against IMP-1 beta-lactamase) were 406 ± 77 nM, 706 ± 66 nM and 171 ± 20 nM, respectively. In “Solubility”, this compound registered a solubility of 8 µM (≈ 3.71 µg/mL). Besides, the Kd at HSA was 484 ± 76 nM.
Turning to `O=S(=O)(/C=C/c1cccc(C(F)(F)F)c1)Nc1cccc(-c2nnn(Cc3cccc(Cl)c3)n2)c1` [ef-rs-05-076], the figures for the Ki (in data set [3]; on AmpC β-lactamase) were 176 nM and 80 nM, respectively.
On to `O=S(=O)(/C=C/c1cccc(Cl)c1)Nc1cccc(OCc2cccc(Cl)c2)c1` [ef-rs-08-048], for which the solubility in the data set “Solubility” came to 19 µM (≈ 8.25 µg/mL). This compound also came in with a half-life in data set [2] of 120 ± 10 min. Further, the Kd on HSA was 113 nM and 252 nM. In data set [4] (setting [6]), the “MIC (MRSA) [4 μg/mL]” value is given as 2. Also, the “reduction of Oxacillin MIC” value in [4] (compound at 4 μg/mL) and in data set [5] (compound at 4 μg/mL) was 8 fold each time. Further, the “MIC (VRSA) [4 μg/ml]” value in data set [5] (setting [6]) is listed as 0.25. For the same compound, the figures for the IC50 on AmpC β-lactamase and at IMP-1 beta-lactamase were 477 ± 59 nM and 487 ± 90 nM, respectively.
For the compound `COc1cccc(COc2cc(NS(=O)(=O)/C=C/c3cccc(Cl)c3)ccc2OC)c1` [ef-rs-09-018], the IC50 in data set [1] was found to be 702 ± 91 nM; against AmpC β-lactamase, 1070 ± 360 nM; on IMP-1 beta-lactamase, 256 ± 33 nM. In the data set “Solubility”, this compound yielded a solubility of 50 µM (≈ 23 µg/mL). The compound further displayed a half-life in [2] of 22 ± 6 min. The compound also yielded a Kd at HSA of 348 ± 53 nM.

The record behind these values is patent US9730913B2 (THE JOHNS HOPKINS UNIVERSITY, priority 2011, dated 2017).
